Source: US6794124B2, “Preservation solution” (Stiftelsen Facthor, priority 1995, dated 2004)

Columns and labels:
blood vessels = assay: short-term and long-term preservation of blood vessels
[1] = system: smooth muscular cells and endothelial cells from blood vessels; assay: morphology of blood vessel cells after long storage with or without calcium (FIG. 2)
Excerpt: The vascular endothelium contains hydrocarbon chains which are bound to proteins in the cell membranes, and these constitute a so-called layer of glycocalyx. This is a thin layer of a mucous substance (composed of sugars) which is considered to enclose the cell membranes and which is important to the properties of immunity of the cell and makes the cell wall permeable. These hydrocarbon chains are bound together by, among other things, calcium. If the vascular endothelial cells are subjected to calcium-free solutions for a long time, a disintegration of the important layer of glycocalyx is assumed to take place, and the function of the endothelium thus cannot be perfect. Evidence of these discoveries has been obtained through electron microscope studies of cell membranes in blood vessels that have been stored in preservation solutions with and without calcium.
The pictures show, on the one hand, smooth muscular cells from blood vessels and, on the other hand, endothelial cells from blood vessels that have been stored for a long time with or without calcium. In the case of preservation without calcium (a: smooth muscular cell and c: endothelial cell), there appears an enormous swelling of the nuclei and the cytoplasm in both types of cells.

Molecule | time for which smooth muscle function in blood vessels is preserved (blood vessels; long-term preservation) | cell morphology after long storage [1] | toxicity to the vascular endothelium / endothelial function (blood vessels)
[Ca+2] [calcium] | up to 36 hours | normal structures of the cells | 
heparin [reference compound] |  |  | not toxic to the endothelial function
